Source: the NIST ThermoML archive (doi:10.1016/j.fluid.2017.12.011)

Legend:
[1] = Liquid, Ebulliometric method (Recirculating still)
[2] = Boiling temperature at pressure P; conditions: Liquid, Ebulliometric method (Recirculating still)

Cc1cccc(C)c1O [2,6-dimethylphenol]
Conditions | Boiling temperature at pressure P [°C] | vapor or sublimation pressure [kPa]
[1], 418.11 K | – | 20
[2], 6.7 kPa | 116.91 | –
[2], 8.87 kPa | 122.99 | –
[2], 10.89 kPa | 128.28 | –
[2], 12.74 kPa | 132.49 | –
[2], 14.98 kPa | 136.82 | –
[2], 16.8 kPa | 140.18 | –
[2], 18.91 kPa | 143.50 | –
[2], 20 kPa | 144.96 | –
[2], 21.02 kPa | 146.28 | –
[2], 22.83 kPa | 148.86 | –
[2], 33.02 kPa | 163.40 | –
[2], 35.64 kPa | 165.8 | –

Cc1ccccc1O [2-methylphenol]
Conditions | Boiling temperature at pressure P [°C] | vapor or sublimation pressure [kPa]
[1], 411.26 K | – | 20
[2], 20 kPa | 138.11 | –

Cc1cccc(O)c1 [3-methylphenol]
Conditions | Boiling temperature at pressure P [°C] | vapor or sublimation pressure [kPa]
[1], 422.16 K | – | 20
[1], 422.28 K | – | 20
[2], 9.29 kPa | 129.09 | –
[2], 11.93 kPa | 135.40 | –
[2], 14.57 kPa | 140.24 | –
[2], 16.68 kPa | 144.32 | –
[2], 18.79 kPa | 147.39 | –
[2], 20 kPa | 149.01 | –
[2], 20.91 kPa | 150.40 | –
[2], 23.02 kPa | 152.89 | –
[2], 25.13 kPa | 155.41 | –
